According to PubChem BioAssay AID248 (DTP/NCI, 2004):
Where “and” joins values, the source holds several entries; their conditions need not be identical. Equal values may be shown once. Toxic doses and inconclusive results are not listed. Cut-off read from the data, not from the text of the source: active = T/C of 150% or more; inactive = T/C below 125%.

Test system: L1210 leukemia ip in BDF1 mice, survival T/C
Assay: NCI In Vivo Anticancer Drug Screen. Data for tumor model L1210 Leukemia (intraperitoneal) in B6D2F1 (BDF1) mice
Details: endpoint: mean survival time, higher = longer survival
In short: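 Transplanted-tumor mice were given test agent; controls received vehicle only. Survival readings from the two groups were divided (treated over control).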

[1] = dose: 50.0 mg/kg/injection, schedule: Q01DX009 (ip), vehicle: saline
[2] = dose: 100.0 mg/kg/injection, schedule: Q01DX009 (ip), vehicle: saline
[3] = dose: 200.0 mg/kg/injection, schedule: Q01DX009 (ip), vehicle: saline
[4] = dose: 100.0 mg/kg/injection, schedule: Q04DX003 (ip), vehicle: saline
[5] = dose: 200.0 mg/kg/injection, schedule: Q04DX003 (ip), vehicle: saline
[6] = dose: 400.0 mg/kg/injection, schedule: Q01DX009 (ip), vehicle: saline
[7] = dose: 400.0 mg/kg/injection, schedule: Q04DX003 (ip), vehicle: saline
[8] = dose: 100.0 mg/kg/injection, schedule: Q04DX003 (ip), vehicle: saline with Tween-80
[9] = dose: 100.0 mg/kg/injection, schedule: Q01DX001 (ip), vehicle: carboxymethylcellulose (CMC)
[10] = dose: 200.0 mg/kg/injection, schedule: Q01DX001 (ip), vehicle: carboxymethylcellulose (CMC)
[11] = dose: 400.0 mg/kg/injection, schedule: Q01DX001 (ip), vehicle: carboxymethylcellulose (CMC)
[12] = dose: 100.0 mg/kg/injection, schedule: Q01DX009 (ip), vehicle: saline with Tween-80
[13] = dose: 100.0 mg/kg/injection, schedule: Q04DX003 (ip), vehicle: other
[14] = dose: 200.0 mg/kg/injection, schedule: Q04DX003 (ip), vehicle: other
[15] = dose: 400.0 mg/kg/injection, schedule: Q04DX003 (ip), vehicle: other
[16] = dose: 12.5 mg/kg/injection, schedule: Q01DX001 (ip), vehicle: saline
[17] = dose: 25.0 mg/kg/injection, schedule: Q01DX001 (ip), vehicle: saline

Measured: T/C

O=C(C#Cc1ccccc1)c1ccccc1
inactive: dose: 5.0 mg/kg/injection, schedule: Q01DX009 (ip), vehicle: Klucel (hydroxypropylcellulose) (HPC) 98 % of control | dose: 5.0 mg/kg/injection, schedule: Q04DX003 (ip), vehicle: Klucel (hydroxypropylcellulose) (HPC) 101 % of control | dose: 10.0 mg/kg/injection, schedule: Q01DX009 (ip), vehicle: Klucel (hydroxypropylcellulose) (HPC) 96 % of control | dose: 10.0 mg/kg/injection, schedule: Q04DX003 (ip), vehicle: Klucel (hydroxypropylcellulose) (HPC) 103 % of control | dose: 20.0 mg/kg/injection, schedule: Q01DX001 (ip), vehicle: Klucel (hydroxypropylcellulose) (HPC) 96 % of control | dose: 20.0 mg/kg/injection, schedule: Q01DX009 (ip), vehicle: Klucel (hydroxypropylcellulose) (HPC) 102 % of control | dose: 20.0 mg/kg/injection, schedule: Q04DX003 (ip), vehicle: Klucel (hydroxypropylcellulose) (HPC) 104 % of control

Cc1ccc(C(C)C)c(OCC2=NCCN2C)c1
inactive: [1] 100 % of control | [2] 98 % of control | [3] 115 % of control

[N-]=[N+]=NC1=C(Cl)C(=O)c2ccccc2C1=O
inactive: dose: 6.25 mg/kg/injection, schedule: Q04DX002 (ip), vehicle: saline with Tween-80 101 % of control | dose: 12.5 mg/kg/injection, schedule: Q04DX002 (ip), vehicle: saline with Tween-80 96 % of control | dose: 25.0 mg/kg/injection, schedule: Q04DX002 (ip), vehicle: saline with Tween-80 96 % of control

O=S(=O)(O)C1(O)CCCCC1
inactive: [1] 99 % of control | [2] 93 % of control | [4] 102 % of control | [3] 103 % of control | [5] 100 % of control | [6] 113 % of control | [7] 96 % of control

O=C(CCl)NCCCNC(=O)CCl
inactive: dose: 6.25 mg/kg/injection, schedule: Q01DX009 (ip), vehicle: other 94 % of control | dose: 12.5 mg/kg/injection, schedule: Q01DX009 (ip), vehicle: other 94 % of control | dose: 25.0 mg/kg/injection, schedule: Q01DX009 (ip), vehicle: other 94 % of control | dose: 25.0 mg/kg/injection, schedule: Q04DX003 (ip), vehicle: saline with Tween-80 98 % of control | dose: 50.0 mg/kg/injection, schedule: Q04DX003 (ip), vehicle: saline with Tween-80 102 % of control | [8] 111 % of control

O=C(Nc1c(Cl)c(Cl)c2c(c1Cl)Cc1cc(Cl)ccc1-2)C(Cl)Cl
inactive: [9] 101 % of control | [10] 101 % of control | [11] 106 % of control

NNC(=O)Nc1cccnc1
inactive: dose: 75.0 mg/kg/injection, schedule: Q01DX009 (ip), vehicle: saline 106 % of control

O=C(Nc1cccc(Cl)c1)Nc1ccc(Cl)c(C(F)(F)F)c1
inactive: dose: 50.0 mg/kg/injection, schedule: Q01DX001 (ip), vehicle: carboxymethylcellulose (CMC) 94 % of control | [9] 105 % of control | [10] 100 % of control | [11] 102 % of control

CC(=O)COc1cccc(Cl)c1Cl
inactive: [12] 98 % of control | dose: 200.0 mg/kg/injection, schedule: Q01DX009 (ip), vehicle: saline with Tween-80 95 % of control | dose: 400.0 mg/kg/injection, schedule: Q01DX009 (ip), vehicle: saline with Tween-80 101 % of control

CCCCCCCCCCCCOCCC(=O)O
inactive: dose: 75.0 mg/kg/injection, schedule: Q01DX001 (ip), vehicle: saline 100 % of control | dose: 150.0 mg/kg/injection, schedule: Q01DX001 (ip), vehicle: saline 94 % of control | dose: 300.0 mg/kg/injection, schedule: Q01DX001 (ip), vehicle: saline 94 % of control

CC1(C)CN1CC1CO1 (stereo not drawn)
inactive: dose: 3.0 mg/kg/injection, schedule: Q01DX Z (ip), vehicle: saline 120 % of control | dose: 5.0 mg/kg/injection, schedule: Q01DX Z (ip), vehicle: saline 120 % of control | dose: 7.0 mg/kg/injection, schedule: Q01DX Z (ip), vehicle: saline 114 % of control and 118 % of control and 124 % of control | dose: 11.0 mg/kg/injection, schedule: Q01DX Z (ip), vehicle: saline 109 % of control

Cc1no[n+]([O-])c1-c1nc(SCC(=O)NN)n[nH]1
inactive: dose: 25.0 mg/kg/injection, schedule: Q04DX002 (ip), vehicle: Klucel (hydroxypropylcellulose) (HPC) 91 % of control | dose: 50.0 mg/kg/injection, schedule: Q04DX002 (ip), vehicle: Klucel (hydroxypropylcellulose) (HPC) 95 % of control | dose: 100.0 mg/kg/injection, schedule: Q04DX002 (ip), vehicle: Klucel (hydroxypropylcellulose) (HPC) 102 % of control

Nc1c[nH]c(=S)s1
inactive: dose: 100.0 mg/kg/injection, schedule: Q01DX001 (ip), vehicle: Klucel (hydroxypropylcellulose) (HPC) 94 % of control | dose: 200.0 mg/kg/injection, schedule: Q01DX001 (ip), vehicle: Klucel (hydroxypropylcellulose) (HPC) 99 % of control

COc1ccc(Cl)cc1NS(=O)(=O)c1ccc(Cl)c([N+](=O)[O-])c1
inactive: dose: 100.0 mg/kg/injection, schedule: Q01DX009 (ip), vehicle: Klucel (hydroxypropylcellulose) (HPC) 98 % of control | dose: 200.0 mg/kg/injection, schedule: Q01DX009 (ip), vehicle: Klucel (hydroxypropylcellulose) (HPC) 109 % of control | dose: 400.0 mg/kg/injection, schedule: Q01DX009 (ip), vehicle: Klucel (hydroxypropylcellulose) (HPC) 98 % of control

NNC(=O)CCCCC(=O)NN
inactive: [4] 100 % of control | [5] 97 % of control | [7] 100 % of control

OC(c1ccccc1)C(c1ccccc1)C1CO1 (stereo not drawn)
inactive: dose: 12.5 mg/kg/injection, schedule: Q01DX009 (ip), vehicle: DMSO 88 % of control | dose: 25.0 mg/kg/injection, schedule: Q01DX009 (ip), vehicle: DMSO 91 % of control | [13] 103 % of control | [14] 103 % of control | [15] 94 % of control

CCSc1ccc2c(cc1=O)C(NC(=S)Nc1ccccc1)CCc1cc(OC)c(OC)c(OC)c1-2 (stereo not drawn)
inactive: dose: 100.0 mg/kg/injection, schedule: Q04DX003 (ip), vehicle: carboxymethylcellulose (CMC) 102 % of control | dose: 200.0 mg/kg/injection, schedule: Q04DX003 (ip), vehicle: carboxymethylcellulose (CMC) 107 % of control

O=C(OC12CCCCC(CCCC1)O2)c1ccc([N+](=O)[O-])cc1
inactive: dose: 100.0 mg/kg/injection, schedule: Q01DX001 (ip), vehicle: saline 91 % of control | dose: 200.0 mg/kg/injection, schedule: Q01DX001 (ip), vehicle: saline 93 % of control | dose: 400.0 mg/kg/injection, schedule: Q01DX001 (ip), vehicle: saline 98 % of control

O=C(c1ccccc1)C(SC(=S)OCc1ccccc1)c1ccccc1 (stereo not drawn)
inactive: dose: 25.0 mg/kg/injection, schedule: Q01DX009 (ip), vehicle: saline with Tween-80 98 % of control | dose: 50.0 mg/kg/injection, schedule: Q01DX009 (ip), vehicle: saline with Tween-80 100 % of control | [12] 96 % of control

C=CCN(CC=C)P(=O)(N1CC1)N1CC1
inactive: dose: 6.2 mg/kg/injection, schedule: Q01DX001 (ip), vehicle: saline 88 % of control | [16] 88 % of control | [17] 88 % of control | dose: 50.0 mg/kg/injection, schedule: Q01DX001 (ip), vehicle: saline 88 % of control

CCCCCCCCCCCCCCCc1ccc([N+](=O)[O-])c(O)c1
inactive: [13] 98 % of control | [14] 101 % of control | [15] 101 % of control

CC1=NC2(CCCCC2)C[N+]1(Cc1ccccc1)Cc1ccccc1
inactive: [8] 94 % of control

C[n+]1c2ccccc2cc2ccc(N=[N+]=[N-])cc21
inactive: dose: 6.25 mg/kg/injection, schedule: Q01DX009 (ip), vehicle: saline 101 % of control | dose: 6.25 mg/kg/injection, schedule: Q04DX003 (ip), vehicle: saline 101 % of control | [16] 97 % of control | dose: 12.5 mg/kg/injection, schedule: Q01DX009 (ip), vehicle: saline 98 % of control | dose: 12.5 mg/kg/injection, schedule: Q04DX003 (ip), vehicle: saline 100 % of control | [17] 97 % of control | dose: 25.0 mg/kg/injection, schedule: Q01DX009 (ip), vehicle: saline 98 % of control | dose: 25.0 mg/kg/injection, schedule: Q04DX003 (ip), vehicle: saline 111 % of control | dose: 35.0 mg/kg/injection, schedule: Q01DX009 (ip), vehicle: saline 104 % of control

OCCOCC#CCOCCO
inactive: [2] 102 % of control | [3] 96 % of control | [6] 98 % of control
